Test results published in paper PMC6582486, “Stapled EGFR peptide reduces inflammatory breast cancer and inhibits additional HER-driven models of cancer” (Journal of Translational Medicine, 2019).
Where a SMILES comes first, the peptide text is derived from it. Bridges are numbered along the chain shown (N, C = ends). [ ]: non-standard residue; d: D form. R8 = C=CCCCCCC[C@@](C)(N)C(=O)O; S5 = C=CCCC[C@](C)(N)C(=O)O

Assay: Plasma concentration after tail-vein injection (toxicokinetics);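 as to SAH-EJ1 concentration in plasma: BQL means below the quantifiable limit of 0.5 µg/mL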
Format: in vivo, CD-1 mice
Protocol: Toxicology was performed by IITRI. The study was conducted in compliance with the US Food and Drug Administration (FDA) good laboratory practice (GLP) Regulations (Code of Federal Regulations Title 21 Part 58) to evaluate the toxicokinetics, local tolerability, immunogenicity, and potential toxicity of SAH5-EJ1 following three times per week intravenous (IV) dosing for 28 days in mice. Male and female CD-1 IGS [Crl:CD1(ICR)] mice (135 per sex) were received from Wilmington, MA-based Charles River Laboratories, Inc.’s Kingston facility (Stone Ridge, NY).

In the case of `CC[C@H](C)[C@H](NC(=O)[C@H](Cc1c[nH]cn1)NC(=O)[C@H](CCCNC(=N)N)NC(=O)[C@H](CCCNC(=N)N)NC(=O)[C@H](CCCNC(=N)N)NC(=O)[C@H](CCSC)NC(=O)[C@H](Cc1ccccc1)NC(=O)[C@H](C)NC(=O)[C@H](CCCNC(=N)N)NC(=O)[C@H](C)NC(=O)[C@H](CCC(N)=O)NC(=O)[C@H](CCCNC(=N)N)NC(=O)[C@H](C)NC(=O)[C@H](C)NC(=O)[C@H](C)NC(=O)[C@H](CCCNC(=N)N)NC(=O)[C@H](C)NC(=O)[C@@H](N)Cc1ccc(O)cc1)C(=O)N[C@H](C(=O)N[C@@H](CCCNC(=N)N)C(=O)N[C@@H](CCCCN)C(=O)N[C@@H](CCCNC(=N)N)C(=O)N[C@]1(C)CCCCCCC=CCCC[C@@](C)(C(=O)N[C@@H](CCCNC(=N)N)C(=O)N[C@@H](CCC(=O)O)C(N)=O)NC(=O)[C@H](CCC(N)=O)NC(=O)[C@H](CC(C)C)NC(=O)[C@H](CC(C)C)NC(=O)[C@H](CCCNC(=N)N)NC(=O)[C@H](CCCNC(=N)N)NC(=O)[C@H](CC(C)C)NC1=O)C(C)C` [SAH5-EJ1] (H-YARAAARQARAFMRRRHIVRKR[R8]LRRLLQ[S5]RE-NH2; staple 23-30), the “SAH-EJ1 concentration in plasma” value (female, 15 mg/kg IV, day 1, 4 h, mouse 2 of 3) is reported as “BQL (BQL represents below quantifiable limits (0.5 µg/mL))”, the “SAH-EJ1 concentration in plasma” value (female, 15 mg/kg IV, day 1, 4 h, mouse 3 of 3) is reported as “BQL (BQL represents below quantifiable limits (0.5 µg/mL))” and the “SAH-EJ1 concentration in plasma” value (female, 15 mg/kg IV, day 1, 8 h, mouse 1 of 3) is reported as “BQL (BQL represents below quantifiable limits (0.5 µg/mL))”. The “SAH-EJ1 concentration in plasma” value (female, 15 mg/kg IV, day 1, 8 h, mouse 2 of 3) was “BQL (BQL represents below quantifiable limits (0.5 µg/mL))”, the “SAH-EJ1 concentration in plasma” value (female, 15 mg/kg IV, day 1, 8 h, mouse 3 of 3) was “BQL (BQL represents below quantifiable limits (0.5 µg/mL))” and the “SAH-EJ1 concentration in plasma” value (female, 15 mg/kg IV, day 1, 24 h, mouse 1 of 3) was “BQL (BQL represents below quantifiable limits (0.5 µg/mL))”. For the same molecule, the “SAH-EJ1 concentration in plasma” value (female, 15 mg/kg IV, day 1, 24 h, mouse 2 of 3) was “BQL (BQL represents below quantifiable limits (0.5 µg/mL))”, the “SAH-EJ1 concentration in plasma” value (female, 15 mg/kg IV, day 1, 24 h, mouse 3 of 3) was “BQL (BQL represents below quantifiable limits (0.5 µg/mL))” and the “time by which peptide was not detectable in plasma” value (male mice, highest body weight dosage) was ≤ 4 h. The “SAH-EJ1 concentration in plasma” value (male, 5 mg/kg IV, day 1, 1 h, mouse 3 of 3) was “BQL (BQL represents below quantifiable limits (0.5 µg/mL))”, the “SAH-EJ1 concentration in plasma” value (male, 5 mg/kg IV, day 1, 2 h, mouse 1 of 3) was “BQL (BQL represents below quantifiable limits (0.5 µg/mL))” and the “SAH-EJ1 concentration in plasma” value (male, 5 mg/kg IV, day 1, 2 h, mouse 2 of 3) was “BQL (BQL represents below quantifiable limits (0.5 µg/mL))”. The “SAH-EJ1 concentration in plasma” value (male, 5 mg/kg IV, day 1, 2 h, mouse 3 of 3) was “BQL (BQL represents below quantifiable limits (0.5 µg/mL))”, the “SAH-EJ1 concentration in plasma” value (male, 5 mg/kg IV, day 1, 4 h, mouse 1 of 3) was “BQL (BQL represents below quantifiable limits (0.5 µg/mL))” and the “SAH-EJ1 concentration in plasma” value (male, 5 mg/kg IV, day 1, 4 h, mouse 2 of 3) was “BQL (BQL represents below quantifiable limits (0.5 µg/mL))”. The “SAH-EJ1 concentration in plasma” value (male, 5 mg/kg IV, day 1, 4 h, mouse 3 of 3) was “BQL (BQL represents below quantifiable limits (0.5 µg/mL))”, the “SAH-EJ1 concentration in plasma” value (male, 5 mg/kg IV, day 1, 8 h, mouse 1 of 3) was “BQL (BQL represents below quantifiable limits (0.5 µg/mL))” and the “SAH-EJ1 concentration in plasma” value (male, 5 mg/kg IV, day 1, 8 h, mouse 2 of 3) was “BQL (BQL represents below quantifiable limits (0.5 µg/mL))”. The “SAH-EJ1 concentration in plasma” value (male, 5 mg/kg IV, day 1, 8 h, mouse 3 of 3) was “BQL (BQL represents below quantifiable limits (0.5 µg/mL))”, the “SAH-EJ1 concentration in plasma” value (male, 5 mg/kg IV, day 1, 24 h, mouse 1 of 3) was “BQL (BQL represents below quantifiable limits (0.5 µg/mL))” and the “SAH-EJ1 concentration in plasma” value (male, 5 mg/kg IV, day 1, 24 h, mouse 2 of 3) was “BQL (BQL represents below quantifiable limits (0.5 µg/mL))”. The “SAH-EJ1 concentration in plasma” value (male, 5 mg/kg IV, day 1, 24 h, mouse 3 of 3) was “BQL (BQL represents below quantifiable limits (0.5 µg/mL))”, the “SAH-EJ1 concentration in plasma” value (male, 10 mg/kg IV, day 1, 2 h, mouse 1 of 3) was “BQL (BQL represents below quantifiable limits (0.5 µg/mL))” and the “SAH-EJ1 concentration in plasma” value (male, 10 mg/kg IV, day 1, 2 h, mouse 2 of 3) was “BQL (BQL represents below quantifiable limits (0.5 µg/mL))”. For the same molecule, the “SAH-EJ1 concentration in plasma” value (male, 10 mg/kg IV, day 1, 2 h, mouse 3 of 3) was “BQL (BQL represents below quantifiable limits (0.5 µg/mL))”, the “SAH-EJ1 concentration in plasma” value (male, 10 mg/kg IV, day 1, 4 h, mouse 1 of 3) was “BQL (BQL represents below quantifiable limits (0.5 µg/mL))” and the “SAH-EJ1 concentration in plasma” value (male, 10 mg/kg IV, day 1, 4 h, mouse 2 of 3) was “BQL (BQL represents below quantifiable limits (0.5 µg/mL))”. The “SAH-EJ1 concentration in plasma” value (male, 10 mg/kg IV, day 1, 4 h, mouse 3 of 3) was “BQL (BQL represents below quantifiable limits (0.5 µg/mL))”, the “SAH-EJ1 concentration in plasma” value (male, 10 mg/kg IV, day 1, 8 h, mouse 1 of 3) was “BQL (BQL represents below quantifiable limits (0.5 µg/mL))” and the “SAH-EJ1 concentration in plasma” value (male, 10 mg/kg IV, day 1, 8 h, mouse 2 of 3) was “BQL (BQL represents below quantifiable limits (0.5 µg/mL))”. For the same molecule, the “SAH-EJ1 concentration in plasma” value (male, 10 mg/kg IV, day 1, 8 h, mouse 3 of 3) was “BQL (BQL represents below quantifiable limits (0.5 µg/mL))”, the “SAH-EJ1 concentration in plasma” value (male, 10 mg/kg IV, day 1, 24 h, mouse 1 of 3) was “BQL (BQL represents below quantifiable limits (0.5 µg/mL))” and the “SAH-EJ1 concentration in plasma” value (male, 10 mg/kg IV, day 1, 24 h, mouse 2 of 3) was “BQL (BQL represents below quantifiable limits (0.5 µg/mL))”. The “SAH-EJ1 concentration in plasma” value (male, 10 mg/kg IV, day 1, 24 h, mouse 3 of 3) was “BQL (BQL represents below quantifiable limits (0.5 µg/mL))”, the “SAH-EJ1 concentration in plasma” value (male, 15 mg/kg IV, day 1, 1 h, mouse 1 of 3) was “BQL (BQL represents below quantifiable limits (0.5 µg/mL))” and the “SAH-EJ1 concentration in plasma” value (male, 15 mg/kg IV, day 1, 2 h, mouse 1 of 3) was “BQL (BQL represents below quantifiable limits (0.5 µg/mL))”. For the same molecule, the “SAH-EJ1 concentration in plasma” value (male, 15 mg/kg IV, day 1, 2 h, mouse 3 of 3) was “BQL (BQL represents below quantifiable limits (0.5 µg/mL))”, the “SAH-EJ1 concentration in plasma” value (male, 15 mg/kg IV, day 1, 4 h, mouse 1 of 3) was “BQL (BQL represents below quantifiable limits (0.5 µg/mL))” and the “SAH-EJ1 concentration in plasma” value (male, 15 mg/kg IV, day 1, 4 h, mouse 2 of 3) was “BQL (BQL represents below quantifiable limits (0.5 µg/mL))”. For the same molecule, the “SAH-EJ1 concentration in plasma” value (male, 15 mg/kg IV, day 1, 4 h, mouse 3 of 3) was “BQL (BQL represents below quantifiable limits (0.5 µg/mL))”, the “SAH-EJ1 concentration in plasma” value (male, 15 mg/kg IV, day 1, 8 h, mouse 1 of 3) was “BQL (BQL represents below quantifiable limits (0.5 µg/mL))” and the “SAH-EJ1 concentration in plasma” value (male, 15 mg/kg IV, day 1, 8 h, mouse 2 of 3) was “BQL (BQL represents below quantifiable limits (0.5 µg/mL))”. For the same molecule, the “SAH-EJ1 concentration in plasma” value (male, 15 mg/kg IV, day 1, 8 h, mouse 3 of 3) was “BQL (BQL represents below quantifiable limits (0.5 µg/mL))”, the “SAH-EJ1 concentration in plasma” value (male, 15 mg/kg IV, day 1, 24 h, mouse 1 of 3) was “BQL (BQL represents below quantifiable limits (0.5 µg/mL))” and the “SAH-EJ1 concentration in plasma” value (male, 15 mg/kg IV, day 1, 24 h, mouse 2 of 3) was “BQL (BQL represents below quantifiable limits (0.5 µg/mL))”. The “SAH-EJ1 concentration in plasma” value (male, 15 mg/kg IV, day 1, 24 h, mouse 3 of 3) was “BQL (BQL represents below quantifiable limits (0.5 µg/mL))”.
